Data published in patent EP0297661B1, “[(Bicyclic heterocyclyl)methyl and -hetero] substituted hexahydro-1H-azepines and pyrrolidines” (JANSSEN PHARMACEUTICA N.V., priority 1987, dated 1989).

test system: compound 48/80-induced lethality; assay: Protection of rats from compound 48/80-induced lethality; assay type: in vivo; conditions: Rattus norvegicus; male Wistar rats; test compound subcutaneously or orally (route per compound not stated); one hour later compound 48/80 0.5 mg/kg intravenously; dose protecting 50% of animals, survival after 4 hours; read-out: compound 48/80 lethality test in rats-ED₅₀ in mg/kg body weight
Description: Protection of rats from compound 48/80-induced lethality.
Compound 48/80, a mixture of oligomers obtained by condensation of 4-methoxy-N-methylbenzeneethanamine and formaldehyde has been described as a potent histamine releasing agent (Int. Arch. Allergy, 13, 336 (1958)). The protection from compound 48/80-induced lethal circulatory collapse appears to be simple way of evaluating quantitatively the antihistaminic activity of test compounds. Male rats of an inbred Wistar strain, weighing 240-260 g were used in the experiment. After overnight starvation the rats were transferred to conditioned laboratories (temp. = 21 ± 1°C, relative humidity = 65 ± 5%). The rats were treated subcutaneously or orally with a test compound or with the solvent (NaCl solution, 0.9%). One hour after treatment there was injected intravenously compound 48/80, freshly dissolved in water, at a dose of 0.5 mg/kg (0.2 ml/100 g of body weight). In control experiments, wherein 250 solvent-treated animals were injected with the standard dose of compound 48/80, not more than 2.8% of the animals survived after 4 hours. Survival after 4 hours is therefore considered to be a safe criterion of a protective effect of drug administration. Said ED₅₀-values are the values in mg/kg body weight at which the tested compounds protect 50% of the tested animals against […] lethality.

Question: For `c1coc(Cn2c(NC3CCCNCC3)nc3cccnc32)c1` (centres unmarked) [compound 49, 3-(2-furanylmethyl)-N-(hexahydro-1H-azepin-4-yl)-3H-imidazo[4,5-b]pyridin2-amine], which ED50 is on record?
Answer: 0.04 mg/kg

Question: Which ED50 does the source give for `COc1ccc(CCN2CCC(Nc3nc4cccnc4n3Cc3ccccn3)C2)cc1` (centres unmarked) [compound 61] here?
Answer: 0.08 mg/kg

Question: Which ED50 does the source give for `COc1ccc(CCN2CCCC(Nc3nc4cccnc4n3Cc3ccc(C)o3)CC2)cc1` (centres unmarked) [compound 68] here?
Answer: 0.04 mg/kg

Question: For `Cc1ccc(Cn2c(NC3CCN(CCc4c(C)nc5ccccn5c4=O)C3)nc3cccnc32)o1` (centres unmarked) [compound 94], which ED50 is on record?
Answer: 0.04 mg/kg

Question: Which ED50 does the source give for `Cc1nc2ccccn2c(=O)c1CCN1CCC(Nc2nc3cccnc3n2Cc2cscn2)C1` (centres unmarked) [compound 95] here?
Answer: 0.04 mg/kg

Question: With `Cc1ccc(Cn2c(NC3CCN(CCc4c(C)nc5ccccn5c4=O)C3)nc3ccccc32)o1` (centres unmarked) [compound 96] as the compound, how does the ED50 read?
Answer: 0.04 mg/kg

Question: `Cc1nc2n(c(=O)c1CCN1CCC(Nc3nc4cccnc4n3Cc3ccccn3)C1)CCCC2` (centres unmarked) [compound 99] was tested. Which ED50 did it give?
Answer: 0.04 mg/kg

Question: For `Cc1ccc(Cn2c(NC3CCN(CCc4c(C)nc5n(c4=O)CCCC5)C3)nc3ccccc32)o1` (centres unmarked) [compound 102], which ED50 is on record?
Answer: 0.04 mg/kg

Question: Which ED50 does the source give for `O=c1oc2ccccc2cc1CCN1CCCC(Nc2nc3cccnc3n2Cc2ccco2)CC1` (centres unmarked) [compound 109, 3-[2-[4-[[3-(2-furanylmethyl)-3H-imidazo[4,5-b]pyridin-2-yl]-amino]hexahydro-1H-azepin-1-yl]ethyl]-2H-1-benzopyran-2-one] here?
Answer: 0.04 mg/kg

Question: Which ED50 does the source give for `O=c1[nH]c2ccccc2n1CCN1CCC(Nc2nc3ccccc3n2Cc2ccc(F)cc2)C1` (centres unmarked) [compound 125, 1-[2-[3-[[1-[(4-fluorophenyl)methyl]-1H-benzimidazol-2-yl]amino]-1-pyrrolidinyl]ethyl]-1,3-dihydro-2H-benzimidazol-2-one] here?
Answer: 0.08 mg/kg

Question: How did the ED50 turn out when `Fc1ccc(Cn2c(NC3CCN(CCNc4ncccn4)C3)nc3ccccc32)cc1` (centres unmarked) [compound 166, 1-[(4-fluorophenyl)methyl]-N-[1-[-(2-pyrimidinylamino)ethyl]-3-pyrrolidinyl]-1H-benzimidazol-2-amine] was run?
Answer: 0.08 mg/kg

Question: Which ED50 does the source give for `Fc1ccc(Cn2c(NC3CCN(CCNc4nccs4)C3)nc3ccccc32)cc1` (centres unmarked) [compound 168, 1-[(4-fluorophenyl)methyl]-N[1-[2-(2-thiazolylamino)ethyl]-3-pyrrolidinyl]-1H-benzimidazol-2-amine] here?
Answer: 0.08 mg/kg

Question: Which ED50 does the source give for `c1csc(Cn2c(NC3CCN(CCNc4nc5cnccc5[nH]4)C3)nc3ccccc32)c1` (centres unmarked) [compound 186] here?
Answer: 0.01 mg/kg

Question: How did the ED50 turn out when `Cc1ccc(Cn2c(NC3CCN(CCNc4nc5cnccc5[nH]4)C3)nc3cccnc32)o1` (centres unmarked) [compound 187, N-[1-[2-[(1H-imidazo[4,5-c]pyridin-2-yl)amino]ethyl]-3-pyrrolidinyl]-3-[(5-methyl-2-furanyl)methyl]-3H-imidazo[4,5-b]pyridin-2-amine] was run?
Answer: 0.04 mg/kg

Question: With `CNC(=O)NCCN1CCC(Nc2nc3ccccc3n2Cc2ccc(F)cc2)C1` (centres unmarked) [compound 188, N-[2-[3-[[1-[(4-fluorophenyl)methyl]-1H-benzimidazol-2-yl]amino]-1-pyrrolidinyl]ethyl]-N′-methylurea] as the compound, how does the ED50 read?
Answer: 0.01 mg/kg

Question: `CN1CCCC(Nc2nc3cccnc3n2Cc2ccco2)CC1` (centres unmarked) [compound 196, 3-(2-furanylmethyl)-N-(hexahydro-1-methyl-1H-azepin-4-yl)-3H-imidazo[4,5-b]-pyridin-2-amine] was tested. Which ED50 did it give?
Answer: 0.02 mg/kg

Question: `Cc1ccc(Cn2c(NC3CCCN(C)CC3)nc3ccccc32)o1` (centres unmarked) [compound 198, N-(hexahydro-1-methyl-1H-azepin-4-yl)-1-[(5-methyl-2-furanyl)methyl]-1H-benzimidazol-2-amine] was tested. Which ED50 did it give?
Answer: 0.04 mg/kg

Question: For `CC(C)N1CCC(Nc2nc3ccccc3n2Cc2ccc(F)cc2)C1` (centres unmarked) [compound 204, 1-[(4-fluorophenyl)methyl]-N-[1-(1-methylethyl)-3-pyrrolidinyl]-1H-benzimidazol-2-amine], which ED50 is on record?
Answer: 0.04 mg/kg

Question: For `Cc1ccc(Cn2c(NC3CCCN(C)CC3)nc3cccnc32)o1` (centres unmarked) [compound 207, N-(hexahydro-1-methyl-1H-azepin-4-yl)-3-[(5-methyl-2-furanyl)methyl]-3H-imidazo[4,5-b]pyridin-2-amine], which ED50 is on record?
Answer: 0.01 mg/kg

Question: For `Cc1ccc(Cn2c(NC3CCCN(CCO)CC3)nc3ccccc32)o1` (centres unmarked) [compound 211, hexahydro-4-[[1-[(5-methyl-2-furanyl)methyl]-1H-benzimidazol-2-yl]amino]-1H-azepine-1-ethanol], which ED50 is on record?
Answer: 0.04 mg/kg
